Experimental data published in publication PMC11831560, “Development of the Pyrido[2,3-d]pyrimidin-7(8H)-one Scaffold toward Potent and Selective NUAK1 Inhibitors” (ACS Medicinal Chemistry Letters, 2025).
“And” between values parts separate entries of the source, which are not always exact repeats. Identical values can stand only once.

Columns and labels:
MARK3 = molecular target: T1, MARK3 (Homo sapiens, UniProt P27448); test: ADP-Glo biochemical assay MARK3
T1 construct: purchased MRC PPU
Protocol: (§1) Biological experimental procedures
(§2) ADP-Glo biochemical assays
(§3) Protein kinase activity in the presence of inhibitor compounds was determined by ADP-Glo assay (Promega), as previously described.1,2 Compounds were serialised using a Labcyte Echo 520 and transferred to 384 well plates (Greiner 784201) followed by the addition 5 µL of substrate containing peptide and ATP at Km in buffer (see Table S6). 5 µL of purified protein was added and the plate was incubated for 60 minutes at room temperature (ng/well; see Table S6). 3 µL of assay mixture was transferred using an Integra Viaflo384 into a white low volume plate (Greiner 781904) prior to the addition of 3 µL of ADP-Glo Reagent™ for a further 40 minute incubation. After incubation with 6 µL of Kinase Detection Reagent for 30 minutes, plate luminescence was read (Pherastar FSX, BMG […]
(§4) 30 mM HEPES pH7.4, 3 mM MgCl2, 3 mM MnCl2, 1.2 mM DTT, 0.01% CHAPS
(§5) Table S6: Conditions for protein kinase ADP-Glo assays
(§6) ATP AT Peptide Peptide Enzyme Enzyme Assay Buffe Min.
(§7) Protein conc. P Peptide name conc. supplier amount supplier vol. r na […]
(§8) NUAK1 µM µM Sakamototide 50 µM Merck 6.7 ng PPU 10 µl A 6
(§9) A µM µM Sakamototide 100 µM Merck 1 ng PPU 10 µl B 2 […]
(§10) aMin. n: Minimum number of technical replicates per compound

MARK2 = molecular target: T2, MARK2 (Homo sapiens, UniProt Q7KZI7); test: ADP-Glo biochemical assay MARK2; settings: for MARK2 pIC50 / IC50: ADP-Glo assay; for IC50: read-out: MARK2 pIC50 (converted)
T2 construct: purchased MRC PPU
T2 sequence (Q7KZI7 whole entry): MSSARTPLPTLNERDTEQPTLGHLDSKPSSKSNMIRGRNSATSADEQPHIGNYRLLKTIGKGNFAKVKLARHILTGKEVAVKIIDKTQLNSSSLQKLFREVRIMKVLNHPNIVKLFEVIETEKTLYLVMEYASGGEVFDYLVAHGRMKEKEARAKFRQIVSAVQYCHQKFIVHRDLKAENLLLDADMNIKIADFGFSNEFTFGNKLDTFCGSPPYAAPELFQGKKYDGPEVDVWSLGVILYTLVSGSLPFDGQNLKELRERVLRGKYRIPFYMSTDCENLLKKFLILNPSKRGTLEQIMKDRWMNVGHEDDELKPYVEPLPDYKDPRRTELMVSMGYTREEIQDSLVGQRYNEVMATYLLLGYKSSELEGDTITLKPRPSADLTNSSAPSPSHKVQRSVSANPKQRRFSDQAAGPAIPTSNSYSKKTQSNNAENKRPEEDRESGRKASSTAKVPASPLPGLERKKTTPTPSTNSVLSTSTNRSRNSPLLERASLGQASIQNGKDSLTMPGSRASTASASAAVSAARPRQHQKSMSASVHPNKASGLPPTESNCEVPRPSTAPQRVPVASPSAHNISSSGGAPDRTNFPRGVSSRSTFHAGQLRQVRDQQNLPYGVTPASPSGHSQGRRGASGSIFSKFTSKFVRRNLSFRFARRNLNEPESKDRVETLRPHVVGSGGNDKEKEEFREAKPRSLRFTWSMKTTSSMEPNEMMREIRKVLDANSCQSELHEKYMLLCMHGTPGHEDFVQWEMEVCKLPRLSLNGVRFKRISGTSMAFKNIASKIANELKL
Protocol: as §1, §2, §3, §4, §5, §6, §7, §8, §9, §10

NUAK1 = molecular target: T3, NUAK1 (Homo sapiens, UniProt O60285); test: ADP-Glo biochemical assay NUAK1; parameters: purchased MRC PPU; settings: for NUAK1 pIC50 / IC50: ADP-Glo assay; for IC50: read-out: NUAK1 pIC50 (converted)
T3 sequence (O60285 1-661): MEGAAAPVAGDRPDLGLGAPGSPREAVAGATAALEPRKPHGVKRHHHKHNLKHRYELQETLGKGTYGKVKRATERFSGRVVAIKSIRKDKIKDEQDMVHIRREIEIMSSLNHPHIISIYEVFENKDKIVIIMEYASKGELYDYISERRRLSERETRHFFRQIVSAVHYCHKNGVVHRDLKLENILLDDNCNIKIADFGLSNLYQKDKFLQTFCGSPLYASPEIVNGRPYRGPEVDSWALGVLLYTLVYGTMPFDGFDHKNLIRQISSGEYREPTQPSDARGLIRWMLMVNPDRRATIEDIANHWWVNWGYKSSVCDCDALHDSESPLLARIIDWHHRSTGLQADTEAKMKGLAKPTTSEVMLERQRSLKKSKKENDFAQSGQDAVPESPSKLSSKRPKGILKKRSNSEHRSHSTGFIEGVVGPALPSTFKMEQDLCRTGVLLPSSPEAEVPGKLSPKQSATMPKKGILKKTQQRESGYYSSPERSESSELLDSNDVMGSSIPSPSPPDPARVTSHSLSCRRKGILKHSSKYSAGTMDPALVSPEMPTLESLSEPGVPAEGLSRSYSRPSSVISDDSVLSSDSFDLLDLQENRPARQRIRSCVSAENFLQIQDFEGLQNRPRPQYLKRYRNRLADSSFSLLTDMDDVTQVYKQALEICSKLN
Protocol: as §1, §2, §3, §4, §5, §6, §7, §8, §9, §10

CDK4/Cyclin D1 = molecular target: T4, CDK4/Cyclin D1 (Homo sapiens, UniProt P11802); test: Adapta screening assay (Thermo Fisher); assay type: biochemical; settings: single point at 1 μM; read-out: CDK4 % Inh.
T4 construct: purchased Thermo Fisher Scientific
T4 sequence (P11802 whole entry): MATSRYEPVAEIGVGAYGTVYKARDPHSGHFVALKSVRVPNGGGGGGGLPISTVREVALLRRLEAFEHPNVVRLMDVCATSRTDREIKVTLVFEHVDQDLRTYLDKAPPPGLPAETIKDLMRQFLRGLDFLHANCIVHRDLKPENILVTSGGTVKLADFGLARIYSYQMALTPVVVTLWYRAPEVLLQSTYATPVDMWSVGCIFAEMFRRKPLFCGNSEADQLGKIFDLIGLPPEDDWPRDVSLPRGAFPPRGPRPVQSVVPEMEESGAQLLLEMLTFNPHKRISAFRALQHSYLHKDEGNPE
T4 sequence (P24385 whole entry partner): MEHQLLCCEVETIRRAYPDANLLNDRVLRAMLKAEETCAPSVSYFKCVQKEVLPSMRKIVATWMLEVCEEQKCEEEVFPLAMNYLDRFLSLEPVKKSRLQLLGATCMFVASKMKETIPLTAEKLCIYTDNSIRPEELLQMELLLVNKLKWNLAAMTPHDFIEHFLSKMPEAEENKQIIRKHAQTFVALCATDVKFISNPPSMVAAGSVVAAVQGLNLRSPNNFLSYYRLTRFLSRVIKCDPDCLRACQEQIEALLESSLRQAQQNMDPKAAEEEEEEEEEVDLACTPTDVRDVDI
From the text: Activity pIC50 values and standard error of the mean (SEM) were estimated using a 4-parameter fit (Dotmatics). The SEM for all reported data was 0.2 or lower. See Experimental Procedures for minimum number of replicates per compound. Each experiment included a Standard compound whose pIC50 value was compared to a quality control chart. If the Standard pIC50 value fell outside the range of pIC50 +/-3 standard deviation, then the experiment was invalidated. […]
CDK4/cyclin D1: Adapta™ screening assay was performed by Thermo Fisher Scientific. The 2X CDK4/cyclin D1 / Rb Substrate mixture is prepared in 50 mM HEPES pH 7.5, 0.01% BRIJ-35, 10 mM MnCl2, 1 mM EGTA, 2 mM DTT, 0.02% NaN3. The final 10 µL Kinase Reaction consists of 7.5 - 30 ng CDK4/cyclin D1 and 1 µM Rb Substrate in 32.5 mM HEPES pH 7.5, 0.005% BRIJ-35, 5 mM MnCl2, […]
0.5 mM EGTA, 1 mM DTT, 0.01% NaN3. […]

Brain protein binding = assay type: in vitro ADME; settings: mouse brain tissue, read-out: BPB Fu
From the text: (§11) All single point assay determinations carried out in duplicate.

MDR1 (P-gp) = test: MDR1-MDCK permeability (bi-directional); assay type: in vitro ADME, canine; settings: dog
From the text: as §11

[1] = Mouse PK cassette (5 mg/kg, I.P.)
Protocol: To investigate the effect of increasing mouse microsomal stability on in vivo half-lives, 9, 10 and 24 were coadministered with 3 in a mouse PK cassette (5 mgkg^–1, I.P.) (Table 5).
ADMET and PK experimental methods
Microsomal stability: analysis was performed by Cyprotex Discovery. Briefly, test compounds in
microsomes (0.5 mg protein/mL) in the presence of NADPH (1 mM) at 37 °C. Aliquots were taken at
generic LC-MS/MS conditions for compound remaining, allowing the determination of the half-life for
MDR1-MDCK Permeability (bi-directional): was performed by Cyprotex Discovery. Briefly,
compounds were administered at 10 µM (1% DMSO final) to the apical or basolateral side of a
confluent monolayer of MDR1- MDCK cells, then incubated at 37 °C for 60 minutes before appearance
on the opposite side of the monolayer was determined LC-MS/MS. The efflux ratio (ER) is calculated
from the ratio of B-A to A-B permeabilities.
Plasma protein binding: was performed by ChemPartner Co. Ltd. Briefly, compounds in DMSO (1
µM, 0.2% DMSO final) were added to mouse plasma or brain tissue and dialysed against buffer for 5
hrs at 37 °C. The compound concentration in each of the plasma and buffer compartments was
determined by mass spectrometry and used to calculate the percentage compound bound.
Pharmacokinetic analysis: was performed by ChemPartner Co. Ltd. Male CD-1 mice (N=3 per
timepoint) were intraperitoneally dosed at 5 mg/kg, as a cassette of five compounds, formulated in 10%
DMSO, 10% Solutol HS 15, 80% (50 mM citrate buffer pH3.0) at 0.5 mg/mL. At the designated time
points a blood sample was collected from the facial vein into K2EDTA tubes, and plasma separated by
centrifugation. Mice were euthanised by CO2 inhalation and brains were dissected and homogenised.
Compound levels were quantified by LC-MS/MS and PK parameters estimated by a non-compartmental
model using WinNonlin 8.2.

T1 sequence (P27448 whole entry): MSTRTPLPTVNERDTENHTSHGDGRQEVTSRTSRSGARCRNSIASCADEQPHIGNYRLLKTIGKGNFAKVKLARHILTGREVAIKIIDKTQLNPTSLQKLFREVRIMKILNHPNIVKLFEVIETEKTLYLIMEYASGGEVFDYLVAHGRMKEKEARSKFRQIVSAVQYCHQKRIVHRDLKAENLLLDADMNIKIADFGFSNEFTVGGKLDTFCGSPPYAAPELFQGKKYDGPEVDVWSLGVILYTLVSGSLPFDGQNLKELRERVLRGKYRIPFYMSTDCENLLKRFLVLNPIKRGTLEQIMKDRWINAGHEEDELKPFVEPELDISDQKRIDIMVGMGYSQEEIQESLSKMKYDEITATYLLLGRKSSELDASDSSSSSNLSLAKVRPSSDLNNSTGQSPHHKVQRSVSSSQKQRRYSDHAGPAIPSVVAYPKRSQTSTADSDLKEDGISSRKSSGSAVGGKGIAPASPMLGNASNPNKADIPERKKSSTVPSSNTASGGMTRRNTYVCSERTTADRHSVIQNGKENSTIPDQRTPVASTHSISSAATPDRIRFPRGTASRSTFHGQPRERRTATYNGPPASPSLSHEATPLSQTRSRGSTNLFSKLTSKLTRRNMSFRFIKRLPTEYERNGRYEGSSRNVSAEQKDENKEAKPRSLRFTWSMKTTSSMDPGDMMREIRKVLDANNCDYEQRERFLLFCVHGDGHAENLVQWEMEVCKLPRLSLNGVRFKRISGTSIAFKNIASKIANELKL

| MARK3 pIC50 (MARK3; ADP-Glo assay) | MARK3 Fold selectivity IC50/NUAK1 IC50 (MARK3) [fold] | MARK2 pIC50 (MARK2) | MARK2 Fold selectivity IC50/NUAK1 IC50 (MARK2) [fold] | ligand efficiency (NUAK1) | NUAK1 pIC50 (NUAK1) | IC50 (NUAK1) [nM] | inhibition at 1 µM (CDK4/Cyclin D1) [%] | IC50 (MARK2) [µM] | IC50 (MARK3; ADP-Glo assay, read-out: MARK3 pIC50 (converted)) [nM] | fraction unbound at 5 h, 1 µM (Brain protein binding) | efflux ratio at 1 h, 10 µM (MDR1 (P-gp); MDCK-MDR1, ratio of B-A to A-B permeabilities, read-out: MDCK ER (efflux ratio)) | Papp at 60 min, 10 µM (MDR1 (P-gp); MDR1-MDCK, 10 µM, 60 minutes) [×10⁻⁶ cm/s] | Kp uu at 0.5 h ([1]; male, CD-1, mouse, brain / plasma (unbound), ip) | Kp at 0.5 h ([1]; male, CD-1, mouse, brain / plasma, ip) | concentration at 30 min ([1]; male, CD-1, mouse, brain, ip) [ng/mL] | concentration at 2 h ([1]; male, CD-1, mouse, brain, ip) [ng/mL] | AUCinf ([1]; mouse, I.P., cassette) [ng·h/mL] | Plasma t1/2 ([1]; mouse, I.P., cassette) [min] | Compound |
| --- | --- | --- | --- | --- | --- | --- | --- | --- | --- | --- | --- | --- | --- | --- | --- | --- | --- | --- | --- |
| 6.2 | 138 | 5.72 and 5.7 | 417 | 0.39 | 8.3 | 4.57 | 90 |  |  |  |  |  |  |  |  |  |  |  | CC(C)N1CCN(c2ccc(Nc3ncc4ccn(C5CCCC5)c4n3)cc2)CC1 [Compound 8] |
| 6.02 and 6.0 | 229 | 5.4 | 1072 | 0.38 | 8.38 and 8.4 |  | 75 | 4.47 |  |  |  |  |  |  |  |  |  |  | CC(C)N1CCN(c2ccc(Nc3ncc4c(n3)N(C3CCCC3)C(=O)C4)cc2)CC1 [Compound 7] |
| 5.8 | 56 | 4.8 | 603 | 0.33 | 7.58 |  |  |  | 1480 | 0.012 | 5.6 | 1.98 | 0.29 | 1.9 | 1160 | 181 | 897 | 54 | CN1CCN(c2ccc(Nc3ncc4cc(C#N)c(=O)n(C5CCCC5)c4n3)cc2)CC1 [Compound 3, Narazaciclib, reference compound] |
| 5.2 |  |  | 4074 |  | 8.6 | 2.75 |  | 11.2 |  |  |  |  |  |  |  |  |  |  | CC(C)N1CCN(c2ccc(Nc3ncc4ccn(CC5CCOC(C)(C)C5)c4n3)cc2)CC1 (centres unmarked) [Compound 26] |

The next lines start with the molecule.

| Compound | MARK3 pIC50 (MARK3; ADP-Glo assay) | MARK3 Fold selectivity IC50/NUAK1 IC50 (MARK3) [fold] | MARK2 pIC50 (MARK2) | MARK2 Fold selectivity IC50/NUAK1 IC50 (MARK2) [fold] | ligand efficiency (NUAK1) | NUAK1 pIC50 (NUAK1) | IC50 (NUAK1) [nM] | inhibition at 1 µM (CDK4/Cyclin D1) [%] | IC50 (MARK2) [µM] | IC50 (MARK3; ADP-Glo assay, read-out: MARK3 pIC50 (converted)) [nM] | fraction unbound at 5 h, 1 µM (Brain protein binding) | efflux ratio at 1 h, 10 µM (MDR1 (P-gp); MDCK-MDR1, ratio of B-A to A-B permeabilities, read-out: MDCK ER (efflux ratio)) | Papp at 60 min, 10 µM (MDR1 (P-gp); MDR1-MDCK, 10 µM, 60 minutes) [×10⁻⁶ cm/s] | Kp uu at 0.5 h ([1]; male, CD-1, mouse, brain / plasma (unbound), ip) | Kp at 0.5 h ([1]; male, CD-1, mouse, brain / plasma, ip) | concentration at 30 min ([1]; male, CD-1, mouse, brain, ip) [ng/mL] | concentration at 2 h ([1]; male, CD-1, mouse, brain, ip) [ng/mL] | AUCinf ([1]; mouse, I.P., cassette) [ng·h/mL] | Plasma t1/2 ([1]; mouse, I.P., cassette) [min] |
| --- | --- | --- | --- | --- | --- | --- | --- | --- | --- | --- | --- | --- | --- | --- | --- | --- | --- | --- | --- |
| Cc1cc(=O)n(C(C)C)c2nc(Nc3ccc(N4CC5CC(C4)N5C)cc3)ncc12 [Compound 20] | 6.0 | 47 |  |  |  | 7.68 and 7.7 |  | 46 |  |  |  |  |  |  |  |  |  |  |  |
| CN1C2CC1CN(c1ccc(Nc3ncc4ccn(CC5CCCO5)c4n3)cc1)C2 (centres unmarked) [Compound 28] | 5.68 and 5.7 | 380 |  | 1047 |  | 8.3 | 5.5 |  | 5.75 |  |  |  |  |  |  |  |  |  |  |
